Among the data in ChEMBL document CHEMBL1134452, “Novel inhibitors of mitochondrial respiratory chain: endoperoxides from the marine tunicate Stolonica socialis” (J Med Chem, 2001) are IC50 values, retold here.

The nature of the assay: Compound was tested for inhibitory activity on mitochondrial electron transport using submitochondrial particles (SMP) from beef heart. The assay is classed as functional, Bos taurus.

Consider `C=CCC/C=C/C=C/CCCCCC[C@H]1CC[C@H]([C@@H]2CC[C@@H](CC(=O)OC)OO2)O1`, for which the half-inhibitory concentration (IC50) (in general, the midpoint of a concentration-inhibition curve) was less than 1000 nM.

Consider `C=CCC/C=C/C=C/CCCCCC[C@@H]1CC[C@@H]([C@@H]2CC[C@@H](CC(=O)OC)OO2)O1`, for which the concentration for half-maximal inhibition (IC50) is less than 1000 nM.
